How the values were obtained:
MDA-MB-231 xenograft = experiment: In vivo antitumour effect on MDA-MB-231 xenograft in immunosuppressed mice; parameters: species or system CBA/Ca mice
Protocol: (§1) The immunosuppression of mice was carried out by using the method of Steel et al. [Br. J. Cancer, 37, 224-230 (1978)]. Immunosuppression and xeno-transplantation
(§2) CBA-Ca female mice of about 6 weeks old were thymectomized and then, after one week, they were irradiated with 60Co (whole body irradiation; the lethal dose is 9.5 Gray). Within 24 hours 3 to 5 x 10^5 myelocytes were injected into the animals. Beneath the skin of the immunosuppressed mice 2 x 10^7 tumour cells or, in the case of later passages, […] were implanted. […] The treatment with steroid hormone was stopped by at least one week before beginning the investigation.
(§3) Recent investigations have begun on 28 animals bearing MCF-7 xenograft and on 28 animals bearing MDA-MB-231 xenograft. On animals bearing MCF-7 tumour the treatment was commenced in the 5th week following xeno-transplantation; the tumour volume was 205 to 225 mm^3. On animals bearing MDA-MB-231 tumour, the treatment was started in the 4th week after xeno-transplantation with a tumour volume of 140 to 150 mm^3. […] The control groups were daily treated with physiological saline s.c. (Each treated group consisting of 7 animals).
A more recent study was started on 28 animals bearing MDA-MB-231 xenograft. The treatment was begun in the 4th or 5th week following xenotransplantation. The tumour volume was 0.165 to 0.194 cm^3. […] (For treatment of the control group, see the preceding Examples). Each group consisted of 7 animals.

[1] = test system: cytosolic progesterone receptor (cPgR); details: animals bearing MCF-7 xenografts
MXT mouse mammary tumour = experiment: In vivo antitumour effect on mice bearing MXT mouse mammary tumour; parameters: species or system CBA/Ca mice
Protocol: The MXT mouse mammary carcinoma contains ER and PgR proteins; furthermore, it contains also GnRH receptors; therefore, this in vivo tumour model is suitable for studying both the direct and indirect effects. The treatment of mice bearing MXT mammary tumour was commenced on the day following transplantation. […] Table VI The animals were daily treated in s.c. route starting from the day following transplantation of MXT mouse mammary tumour. […] MI-1544: 75 µg/day/animal; MI-1892: 75 µg/day/animal.

[2] = test system: Ishikawa human endometrium carcinoma cell line; experiment: Inhibition of colony formation (dose-survival relation, Example 18); assay type: cell-based
[3] = test system: PC3 human prostate carcinoma cell line; experiment: as above; assay type: cell-based
[4] = test system: MCF-7 human mammary carcinoma cell line; experiment: as above; assay type: cell-based; details: treated once
[5] = test system: MDA-MB-231 human mammary carcinoma cell line; experiment: as above; assay type: cell-based
human tumour cell lines = experiment: Inhibition of colony formation (Example 18), cell line not given; assay type: cell-based; details: 50 µM of the active substance; cell line not stated
Protocol: The investigation gives a precise information about the cell-damaging effect of the tested substance. In the case of cytostatics the cell-damaging effect is not cell-specific. […] One part of the arrested cells again go into the cycle, the other part may perish (apoptosis). […] The investigations were carried out on MCF-7 and MDA-MB-231 human mammary carcinoma cell lines, PC3 human prostate 15 carcinoma cell line and Ishikawa human endometrium carcinoma cell line. Three hundred cells were set into Petri dishes of 3.5 cm in diameter each. The treatment was carried out once, 24 hours following the explantation, then the colonies formed were counted after 9 to 12 days.

MCF-7 xenograft = experiment: In vivo antitumour effect on MCF-7 xenograft in immunosuppressed mice; parameters: species or system CBA/Ca mice; details: for Tumour volume as control (%): conjugates 1 x 50 µg; for Inhibition % (tumour growth): daily s.c.
Protocol: as §1, §2
In the case of MCF-7 tumours (xenografts) the examinations were carried out with passages being in the phase of the 37th and 38th, respectively, transplantations.
In the case of mice bearing MCF-7 xenograft, the treatment was begun in the 4th week following xeno-transplantation.
as §3

[6] = Table V, treatment week 2, conjugates 1x50 µg daily s.c.
[7] = Table V, treatment week 6, MI-1892 2x25 µg, conjugates 1x50 µg daily s.c.
[8] = week 0, daily s.c., P-GFLG-1544 1 x 50 µg, P-GFLG-1892 1 x 75 µg
[9] = week 1, daily s.c., P-GFLG-1544 1 x 50 µg, P-GFLG-1892 1 x 75 µg
[10] = week 2, daily s.c., P-GFLG-1544 1 x 50 µg, P-GFLG-1892 1 x 75 µg
[11] = week 3, daily s.c., P-GFLG-1544 1 x 50 µg, P-GFLG-1892 1 x 75 µg
[12] = week 4, daily s.c., P-GFLG-1544 1 x 50 µg, P-GFLG-1892 1 x 75 µg
[13] = week 5, daily s.c., P-GFLG-1544 1 x 50 µg, P-GFLG-1892 1 x 75 µg
[14] = week 6, daily s.c., P-GFLG-1544 1 x 50 µg, P-GFLG-1892 1 x 75 µg
[15] = MXT mouse mammary tumour, Treatment weeks: 13, 1x75 µg daily s.c.
[16] = MXT mouse mammary tumour, Treatment weeks: 20, 1x75 µg daily s.c.
[17] = after 6 week treatment, xenograft not given

In the case of “Ac-D-Trp^1,3,D-Cpa^2, {Lys[n-poly(N-vinyl pyrrolidone-co-maleic acid)-Gly-Phe-Leu-Gly-]}^5, [a-Asp(DEA)]^6, D-Ala^10-GnRH [P-GFLG-1892]”, the tumour-free animals (MDA-MB-231 xenograft; MDA-MB-231 xenograft, end of the 6th week, first series) is reported as “A tumour-free animal was found”, the Inhibition % (MDA-MB-231 xenograft; [6]) is reported as 26.5% and the “Tumour volume as control (%)” value (MDA-MB-231 xenograft; [6]) is reported as 73.5%. For the same substance, the Inhibition % (MDA-MB-231 xenograft; [7]) was 44%, the “Tumour volume as control (%)” value (MDA-MB-231 xenograft; [7]) was 56% and the “Tumour volume (cm^3)” value (MDA-MB-231 xenograft; [8]) was 0.15 cm^3. For the same substance, the “Tumour volume as control (%)” value (MDA-MB-231 xenograft; [8]) was 100%, the “Tumour volume (cm^3)” value (MDA-MB-231 xenograft; [9]) was 0.21 cm^3 and the “Tumour volume as control (%)” value (MDA-MB-231 xenograft; [9]) was 84%. The “Tumour volume (cm^3)” value (MDA-MB-231 xenograft; [10]) was 0.25 cm^3, the “Tumour volume as control (%)” value (MDA-MB-231 xenograft; [10]) was 79% and the “Tumour volume (cm^3)” value (MDA-MB-231 xenograft; [11]) was 0.27 cm^3. For the same substance, the “Tumour volume as control (%)” value (MDA-MB-231 xenograft; [11]) was 74%, the “Tumour volume (cm^3)” value (MDA-MB-231 xenograft; [12]) was 0.34 cm^3 and the “Tumour volume as control (%)” value (MDA-MB-231 xenograft; [12]) was 81%. The “Tumour volume (cm^3)” value (MDA-MB-231 xenograft; [13]) was 0.33 cm^3, the “Tumour volume as control (%)” value (MDA-MB-231 xenograft; [13]) was 75% and the “Tumour volume (cm^3)” value (MDA-MB-231 xenograft; [14]) was 0.33 cm^3. The “Tumour volume as control (%)” value (MDA-MB-231 xenograft; [14]) was 58%, the “decrease of the uterus cPgR level” value [1] was 23% and the Inhibition % (MXT mouse mammary tumour; [15]) was 72%. For the same substance, the “Tumour volume as control (%)” value (MXT mouse mammary tumour; [15]) was 28%, the Inhibition % (MXT mouse mammary tumour; [16]) was 62% and the “Tumour volume as control (%)” value (MXT mouse mammary tumour; [16]) was 38%. For the same substance, the “Tumour volume (cm^3)” value (MXT mouse mammary tumour; day 9, 75 µg/day/animal s.c.) was 0.29 cm^3, the “Tumour volume as control (%)” value (MXT mouse mammary tumour; day 9, 75 µg/day/animal s.c.) was 40% and the “Tumour volume (cm^3)” value (MXT mouse mammary tumour; day 11, 75 µg/day/animal s.c.) was 0.66 cm^3. The “Tumour volume as control (%)” value (MXT mouse mammary tumour; day 11, 75 µg/day/animal s.c.) was 36%, the “Tumour volume (cm^3)” value (MXT mouse mammary tumour; day 13, 75 µg/day/animal s.c.) was 0.91 cm^3 and the “Tumour volume as control (%)” value (MXT mouse mammary tumour; day 13, 75 µg/day/animal s.c.) was 28%. The “Tumour volume (cm^3)” value (MXT mouse mammary tumour; day 17, 75 µg/day/animal s.c.) was 1.86 cm^3, the “Tumour volume as control (%)” value (MXT mouse mammary tumour; day 17, 75 µg/day/animal s.c.) was 36% and the “Tumour volume (cm^3)” value (MXT mouse mammary tumour; day 18, 75 µg/day/animal s.c.) was 3.1 cm^3. The “Tumour volume as control (%)” value (MXT mouse mammary tumour; day 18, 75 µg/day/animal s.c.) was 42%, the “Tumour volume (cm^3)” value (MXT mouse mammary tumour; day 20, 75 µg/day/animal s.c.) was 3.61 cm^3 and the “Tumour volume as control (%)” value (MXT mouse mammary tumour; day 20, 75 µg/day/animal s.c.) was 38%. The “Tumour volume (cm^3)” value (MXT mouse mammary tumour; day 24, 75 µg/day/animal s.c.) was 6.07 cm^3, the “Tumour volume as control (%)” value (MXT mouse mammary tumour; day 24, 75 µg/day/animal s.c.) was 48% and the “Tumour volume (cm^3)” value (MXT mouse mammary tumour; day 26, 75 µg/day/animal s.c.) was 8.91 cm^3. For the same substance, the “Tumour volume as control (%)” value (MXT mouse mammary tumour; day 26, 75 µg/day/animal s.c.) was 64%, the “% Inhibition of colony formation” value ([2]; 10 µM) was 72% and the “% Inhibition of colony formation” value ([2]; 30 µM) was 100%. The “inhibition of colony formation” value ([2]; 30 to 50 µM) was 100%, the “% Inhibition of colony formation” value ([3]; 10 µM) was 86% and the “inhibition of colony formation” value ([3]; 30 to 50 µM) was 100%. The “% Inhibition of colony formation” value ([4]; 10 µM (active substance)) was 60%, the “% Inhibition of colony formation” value ([4]; 50 µM (active substance)) was 93% and the “% Inhibition of colony formation” value ([5]; 10 µM) was 92%. For the same substance, the “% Inhibition of colony formation” value ([5]; 30 µM) was 100%, the “inhibition on the colony formation / survival of the cells” value (human tumour cell lines) was 100% and the “rate of tumour growth” value (MCF-7 xenograft; MCF-7 xenograft, first study, conjugates 150 µg in every 3rd day, P-GFLG-OH daily s.c.) was “not influenced”. The “decrease in the tumour volume in comparison to controls” value (MCF-7 xenograft; MCF-7 xenograft, first study, end of 4th week, MI-1892 2 x 25 µg daily, conjugates 50 µg daily once) was 30%, the tumour volume (MCF-7 xenograft; MCF-7 xenograft, 4th week of treatment) was 2.428 cm^3 and the “Tumour volume as control (%)” value (MCF-7 xenograft; MCF-7 xenograft, treatment week 2) was 70%. For the same substance, the “Inhibition % (tumour growth)” value (MCF-7 xenograft; MCF-7 xenograft, treatment week 2, listed as 5. P-GFLG-1892) was 30%, the “Inhibition % (tumour growth)” value (MCF-7 xenograft; MCF-7 xenograft, treatment week 4) was 37% and the “Tumour volume as control (%)” value (MCF-7 xenograft; MCF-7 xenograft, treatment week 6, MI-1892 2 x 25 µg) was 57%. The “Inhibition % (tumour growth)” value (MCF-7 xenograft; MCF-7 xenograft, treatment week 6, listed as 5. P-GFLG-1892) was 43%, the “Volume (cm^3) of tumours” value (MCF-7 xenograft; [17]) was 4.327 ± 0.379 cm^3 and the “Weight (g) of tumours” value (MCF-7 xenograft; [17]) was 4.0 ± 0.9 g.

From patent EP0728012B1, “NOVEL GnRH ANALOGUES WITH ANTITUMOUR EFFECTS AND PHARMACEUTICAL COMPOSITIONS THEREOF” (Lovas, Sandor, priority 1994, dated 1996)
